Experimental findings from patent US20220363667A1 (Nippon Chemiphar Co., Ltd., priority 2018, published 2022) are described below.

Molecules are shown by their SMILES. Entries after “also recorded” stand apart in the source; their conditions may differ.

One test has as its system SD rats. Put plainly: Rat formalin test. It is filed as in vivo. As to conditions: po, 30 mg/kg orally once, pain behavior time from 15 to 30 minutes after formalin administration vs vehicle group, read-out: Inhibition ratio (pain behavior inhibition ratio). The procedure: 30 mg/kg of a vehicle or a test substance was orally administrated to SD rats once, and according to the method described in McNamara C. R., Mandel-Brehm J., Bautista D. M., Siemens J., Deranian K. L., Zhao M., Hayward N. J., Chong J. A., Julius D., Moran M. M., Fanger C. M.: TRPA1 mediates formalin-induced pain. Proc. Natl. Acad. Sci. U.S.A. 104, 2007, 13525-13530, 50 μL of a 2.0% formalin solution as a pain-inducing substance was subcutaneously administered under the skin of the plantar plate of the right hind limb of each rat.
Regarding the evaluation, the pain behavior inhibition ratio was determined from the pain behavior time of each test substance-administered group with respect to the pain behavior time of the vehicle-administered group for 15 minutes measured from 15 minutes to 30 minutes after the administration.

Another test has as its system mouse PSNL model. Description: Mechanical allodynia in mouse partial sciatic nerve ligation (PSNL) model. It counts as in vivo. The conditions noted are these: 30 mg/kg orally administered, compared with the vehicle group. The source says: The production of a mouse PSNL model was achieved according to the method of Seltzer et al. A mouse was subjected to inhalation anesthesia with isoflurane. The femoral region of the mouse was shaved and disinfected with isodine. The skin on a thighbone of the mouse was incised, the fascia directly under the skin was cut, and the muscle heads of the musculus biceps femoris were split. The sciatic nerve directly under the fascia was checked, and then the sciatic nerve was detached so as not to damage the nerve. The needle of a needle with 8-0 silk thread was passed through the sciatic nerve to penetrate therethrough, and the sciatic nerve was ligated for about ½ to ⅓ of the whole nerve. The skin was sutured, and the mouse was raised for about 7 days. […]
The measurement of the pain threshold was carried out after transferring the mice into a cage for measurement and waiting for the exploratory behavior to disappear. Regarding the pain threshold (paw withdrawal filament ((g)), the plantar plates of the mice were stimulated with von Frey filaments (Sttoelting Co.: TOUCH-TEST SENSORY EVLUATOR) having different stimulus intensities, and the presence or absence of an escape response was observed. The 50% threshold was calculated by an up-down method with reference to the method of Chaplan et al. (Quantitative assessment of tactile allodynia in the rat paw. J neurosci Methods, 53, 1994, 55-63). […]

As for `Cn1ncc2cc(CC(=O)N[C@@H]3CCN(c4ccc(C(F)(F)F)nc4)C3)ccc21` [Example 144, (R)-2-(1-methyl-1H-indazol-5-yl)-N-(1-(6-(trifluoromethyl)pyridin-3-yl)pyrrolidin-3-yl)acetamide], the inhibition in vivo at 30 mg/kg with SD rats is not below 20%. The “mechanical allodynia (pain threshold, von Frey filament test)” value in the test with mouse PSNL model was “inhibited mechanical allodynia statistically significantly; also recorded: suppressed statistically significantly”.
